Measured values: patent US20210130420A1, “RECOMBINANT BINDING PROTEINS TARGETING HER2 AND SERUM ALBUMIN, AND THEIR USES” (Molecular Partners AG, priority 2016, published 2021)

Assays:
BT474 cells = assay: BT474 cell proliferation, BrdU-labeling; assay type: cell-based, human; details: for IC50: Homo sapiens, BT-474, compound alone or titrated on top of 2 nM Protein #21-His, read-out: cell proliferation inhibition constant IC50, BT474
Protocol: Protein #21-His and Protein #23-His, were expressed and purified as described in Example 1. Effects of the recombinant binding proteins on BT474 cell proliferation were determined by measuring DNA synthesis using BrdU-labeling (BrdU, Cell Proliferation ELISA, Roche). Briefly, 10000 BT474 cells were seeded per well in a 96 well plate in 100 ul complete medium and incubated for 24 hours. Recombinant binding proteins or controls were added for an additional 72 hours. BrdU for cell labeling was added for the last 24 hours. Labeled (proliferating) cells were detected according to the manufactures protocol. The data were analyzed using the GraphPad prism software, plotting log [c] on the x-axis against OD450-602 nm on the y-axis. Data were fitted using a non-linear regression fit (log(antagonist) vs. response—Variable slope (four parameters)) deriving IC50 values.
(§1) Protein #21 and Protein #21-His were expressed and purified as described in Example 1. Standard BrdU cell proliferation assays were performed, well-known to the person skilled in the art. Briefly, effects on cell proliferation of Protein #21-His, other compounds, or Protein #21-His in combination with other compounds, were determined by measuring DNA synthesis using BrdU-labeling (BrdU, Cell Proliferation ELISA, Roche). Briefly, 10000 cells were seeded per well in a 96 well plate in 100 μl complete medium and incubated for 24 hours. Protein #21-His and/or compounds were added for an additional 72 hours. BrdU for cell labeling was added for the last 24 hours. Labeled (proliferating) cells were detected according to the manufactures protocol. The data were analyzed using the Graph Pad prism software (log [c] vs. OD450-602 nm plot). Data were fitted using a non-linear regression fit (log(antagonist) vs. response—variable slope (four parameters)).

MDA-MB175 cells = assay: MDA-MB175 cell proliferation, BrdU-labeling; assay type: cell-based; details: for IC50: compound alone or titrated on top of 4 nM Protein #21-His, read-out: cell proliferation inhibition constant IC50, MDA-MB175
Protocol: as §1

[1] = Pharmacokinetic analysis in cynomolgus monkey; assay type: in vivo; details: 1 mg/kg, intravenous infusion
Protocol: The measurements shown in this example are the result of a half-life engineering effort as described in Example 11. Protein #21-His, Protein #23-His, and Protein #24-His were expressed and purified as described in Example 1. The pharmacokinetic properties of the proteins were assessed in cynomolgus monkey. Proteins were administered via intravenous infusion for 30 min at a target dose level of between 1 mg/kg to cynomolgus monkeys. Blood samples were collected pre-dose and again at selected time points, for example 5 min, 10 min, 0.5 hours, 1 hour, 2 hours, 4 hours, 8 hours, 12 hours, 24 hours, 48 hours, 72 hours, 96 hours, 120 hours, 144 hours, 168 hours, 192 hours, 216 hours, and 240 hours post-end of infusion (i.e. post-injection). The blood samples were allowed to stand at room temperature and were centrifuged to generate serum, followed by storage at −80° C. pending analyses. Pharmacokinetic parameters were determined using procedures well known to the person skilled in the art. Serum concentrations of proteins were determined by sandwich ELISA using a rabbit monoclonal anti-designed ankyrin repeat domain antibody as capture reagent and murine monoclonal anti-designed ankyrin repeat domain antibody as detection reagent, and using a standard curve. Pharmacokinetic parameters were determined using standard software such as Phoenix WinNonLin (Certara, Princeton, USA) or Graph Pad Prism (GraphPad Software, La Jolla, USA) and standard analyses such as non-compartmental analyses. […] Target mediated clearance is well-known to the person skilled in the art and is known from e.g. antibodies targeting HER2.
Similarly, Protein #21-His was expressed and purified as described in Example 1. The pharmacokinetic properties of the proteins were assessed in cynomolgus monkey as described above at 1 mg/kg, 5 mg/kg and 10 mg/kg.
Similar results are observed when testing Protein #21 (expressed and purified as described in Example 1). The pharmacokinetic properties of the proteins are assessed in cynomolgus monkey as described above at 1 mg/kg, 10 mg/kg and 100 mg/kg. Pharmacokinetic parameters are evaluated as described above.
(§2) For the studies in this example Protein #21-His, Protein #24-His, Protein #28-His, Protein #29-His, and Protein #30-His were prepared according to Example 1. Protein #28-His was additionally PEGylated using a 40 kDa PEG moiety (NOF Sunbright GL2-400MA) by maleimid coupling of the PEG-moiety onto the free C-terminal cysteine of Protein #28-His, followed by purification to homogeneity using standard purification methods, procedures well known to the person skilled in the art. Pharmacokinetic analyses in mouse or cynomolgus monkey were performed as described in Examples 8 and 9.

[2] = Pharmacokinetic analysis in mouse; assay type: in vivo
Protocol: The measurements shown in this example are the result of a half-life engineering effort as described in Example 11. Protein #21-His and Protein #23-His were expressed and purified as described in Example 1. The pharmacokinetic properties of the His-tagged proteins were assessed in mouse as described elsewhere (Zahnd, C., Kawe, M., Stumpp, M. T., de Pasquale, C., Tamaskovic, R., Nagy-Davidescu, G., Dreier, B., Schibli, R., Binz, H. K., Waibel, R., Plückthun, A., Cancer Res. 70, 1595-1605, 2010). […] Having SEQ ID NO: 16 present in the recombinant binding protein thus appears to be more favorable than having SEQ ID NO: 18 present.
Polypeptide linkers that link protein domains are well-known to the person skilled in the art. Gly-Ser-rich linkers are well-known from single-chain Fv antibody fragments, where they have proven to be most appropriate to link the two Fv polypeptide chains. […] Protein #26-His and Protein #27-His, were expressed and purified as described in Example 1. Pharmacokinetic analyses in mouse were performed as described in Example 8.
as §2

[3] = Storage stability in PBS analysed by size-exclusion chromatography; assay type: physicochemical; details: 10 mg/ml in PBS, 1 month at −80° C.
Protocol: A storage stability improvement is also observed, when testing the storage stability of Protein #21 and Protein #22 (recombinant binding proteins consisting of the amino acid sequences corresponding to SEQ ID NOs: 21 and 22, respectively). Protein #21 and Protein #22 are prepared as described in Example 1, samples are concentrated to 10 mg/ml in PBS and stored for 1 month at −80° C. in or at 40° C. in glass vials, followed by analysis on standard size-exclusion chromatography.

## C=C1C[C@@H]2CC[C@@]34C[C@H]5O[C@H]6[C@@H](O3)[C@H]3O[C@H](CC[C@@H]3O[C@H]6[C@H]5O4)CC(=O)C[C@@H]3[C@@H](OC)[C@@H](C[C@H](O)CN)O[C@H]3C[C@H]3O[C@@H](CC[C@@H]1O2)C[C@@H](C)C3=C [Eribulin]
BT474 cells; single agent or on top of suboptimal Protein #21-His (2 nM) or Protein #21 (1 nM)
  inhibition of BT474 cell proliferation, in words: not active
MDA-MB175 cells
  IC50: 104 nM
MDA-MB175 cells; single agent or on top of suboptimal Protein #21-His (4 nM) or Protein #21 (10 nM)
  inhibition of MDA-MB175 cell proliferation, in words: very low potency

## CO[C@H]1C[C@@H]2CC[C@@H](C)[C@@](O)(O2)C(=O)C(=O)N2CCCC[C@H]2C(=O)O[C@H]([C@H](C)C[C@@H]2CC[C@@H](OCCO)[C@H](OC)C2)CC(=O)[C@H](C)/C=C(\C)[C@@H](O)[C@@H](OC)C(=O)[C@H](C)C[C@H](C)/C=C/C=C/C=C/1C [Everolimus]
MDA-MB175 cells
  IC50: 263000 nM

## CS(=O)(=O)N1CCN(Cc2cc3nc(-c4cccc5[nH]ncc45)nc(N4CCOCC4)c3s2)CC1 [GDC-0941]
BT474 cells
  IC50: 176 nM
MDA-MB175 cells
  IC50: 203 nM

## CS(=O)(=O)CCNCc1ccc(-c2ccc3ncnc(Nc4ccc(OCc5cccc(F)c5)c(Cl)c4)c3c2)o1 [Lapatinib]
BT474 cells
  IC50: 765 nM
MDA-MB175 cells
  IC50: 2810 nM

B1: Protein #24-His: SEQ ID NO: 24 with a His-tag (SEQ ID NO: 1) fused to its N terminus (protein)
chain: MRGSHHHHHHGSDLGKKLLEAARAGQDDEVRELLKAGADVNAKDYFSHTPLHLAARNGHLKIVEVLLKAGADVNAKDFAGKTPLHLAANEGHLEIVEVLLKAGADVNAQDIFGKTPADIAADAGHEDIAEVLQKAAGSPTPTPTTPTPTPTTPTPTPTGSDLGKKLLEAARAGQDDEVRELLKAGADVNAKDYFSHTPLHLAARNGHLKIVEVLLKAGADVNAKDFAGKTPLHLAANEGHLEIVEVLLKAGADVNAQDIFGKTPADIAADAGHEDIAEVLQKAAGSPTPTPTTPTPTPTTPTPTPTGSDLGIKLLFAAAKGQDDEVRELLKAGADVNAKDFQGVTPLHIAAQSGHLEIVEVLLKAGADVNAKDVTGDTPLHLAAQHGHLEIVEVLLKAGADVNAQDERGWTPADLAADWGHEDIAEVLQKAAGSPTPTPTTPTPTPTTPTPTPTGSDLGKKLLEAARAGQDDEVRELLKAGADVNAKDEYGLTPLYLATAHGHLEIVEVLLKAGADVNAVDAIGFTPLHLAAFIGHLEIAEVLLKAGADVNAQDKFGKTPADIAAGAGNEDIAEVLQKAA
modifications: His-tag; Protein comprising four designed ankyrin repeat domains
[1]
  terminal half-life: 45 h

B2: Protein #23-His: SEQ ID NO: 23 with a His-tag (SEQ ID NO: 1) fused to its N terminus (protein)
chain: MRGSHHHHHHGSDLGKKLLEAARAGQDDEVRELLKAGADVNAKDYFSHTPLHLAARNGHLKIVEVLLKAGADVNAKDFAGKTPLHLAANEGHLEIVEVLLKAGADVNAQDIFGKTPADIAADAGHEDIAEVLQKAAGSPTPTPTTPTPTPTTPTPTPTGSDLGVKLLWAAARGQDDEVRELLKAGADVNAKDFQGITPLHIAATNGHLEIVEVLLKAGADVNAKDITGETPLHHAADSGHLEIVEVLLKAGADVNAQDKAGVTPADLAAAWGHEDIAEVLQKAAGSPTPTPTTPTPTPTTPTPTPTGSDLGKKLLEAARAGQDDEVRELLKAGADVNAKDEYGLTPLYLATAHGHLEIVEVLLKAGADVNAVDAIGFTPLHLAAFIGHLEIAEVLLKAGADVNAQDKFGKTPADIAAGAGNEDIAEVLQKAAGSPTPTPTTPTPTPTTPTPTPTGSDLGKKLLEAARAGQDDEVRELLKAGADVNAKDYFSHTPLHLAARNGHLKIVEVLLKAGADVNAKDFAGKTPLHLAANEGHLEIVEVLLKAGADVNAQDIFGKTPADIAADAGHEDIAEVLQKAA
modifications: His-tag; Protein comprising four designed ankyrin repeat domains
BT474 cells; BT474 proliferation
  IC50 higher than that of Protein #21-His: 60%
[2]
  % ID remaining after 48 hours: 6.5 % ID
  terminal half-life: 24.7 h
[1]
  terminal half-life: 35 h

B3: Protein #22: SEQ ID NO: 22; corresponding recombinant binding protein with serum albumin binding domains of SEQ ID NO: 13 (protein)
chain: GSDLGKKLLEAARAGQDDEVRELLKAGADVNAKDYFSHTPLHLAARNGHLKIVEVLLKAGADVNAKDFAGKTPLHLAANDGHLEIVEVLLKAGADVNAQDIFGKTPADIAADAGHEDIAEVLQKAAGSPTPTPTTPTPTPTTPTPTPTGSDLGIKLLFAAAKGQDDEVRELLKAGADVNAKDFQGVTPLHIAAQSGHLEIVEVLLKAGADVNAKDVTGDTPLHLAAQHGHLEIVEVLLKAGADVNAQDERGWTPADLAADWGHEDIAEVLQKAAGSPTPTPTTPTPTPTTPTPTPTGSDLGKKLLEAARAGQDDEVRELLKAGADVNAKDEYGLTPLYLATAHGHLEIVEVLLKAGADVNAVDAIGFTPLHLAAFIGHLEIAEVLLKAGADVNAQDKFGKTPADIAAGAGNEDIAEVLQKAAGSPTPTPTTPTPTPTTPTPTPTGSDLGKKLLEAARAGQDDEVRELLKAGADVNAKDYFSHTPLHLAARNGHLKIVEVLLKAGADVNAKDFAGKTPLHLAANDGHLEIVEVLLKAGADVNAQDIFGKTPADIAADAGHEDIAEVLQKAA
modifications: Protein comprising four designed ankyrin repeat domains
[3]
  elution profiles upon storage at −80° C.: equivalent elution profiles
